Molecules are shown by their SMILES.

In the first assay the target is T1, Cdc7/ASK (Homo sapiens, UniProt O00311). Put plainly: Cdc7 biochemical assay Method 3: off-chip mobility shift assay (MSA) run at Carna Biosciences. Also noted: purchased Carna Biosciences; host or cells: baculovirus expression system. Particulars: MCM2 peptide 1000 nM, ATP 5 μM, 5 hours, read-out: Biochemical method 3 (pIC50) (converted). How it is done: This protocol describes a method for assaying Cdc7/ASK for activity. The assay is an off-chip mobility shift assay (MSA) run at Carna Biosciences.
T1 sequence (O00311 whole entry): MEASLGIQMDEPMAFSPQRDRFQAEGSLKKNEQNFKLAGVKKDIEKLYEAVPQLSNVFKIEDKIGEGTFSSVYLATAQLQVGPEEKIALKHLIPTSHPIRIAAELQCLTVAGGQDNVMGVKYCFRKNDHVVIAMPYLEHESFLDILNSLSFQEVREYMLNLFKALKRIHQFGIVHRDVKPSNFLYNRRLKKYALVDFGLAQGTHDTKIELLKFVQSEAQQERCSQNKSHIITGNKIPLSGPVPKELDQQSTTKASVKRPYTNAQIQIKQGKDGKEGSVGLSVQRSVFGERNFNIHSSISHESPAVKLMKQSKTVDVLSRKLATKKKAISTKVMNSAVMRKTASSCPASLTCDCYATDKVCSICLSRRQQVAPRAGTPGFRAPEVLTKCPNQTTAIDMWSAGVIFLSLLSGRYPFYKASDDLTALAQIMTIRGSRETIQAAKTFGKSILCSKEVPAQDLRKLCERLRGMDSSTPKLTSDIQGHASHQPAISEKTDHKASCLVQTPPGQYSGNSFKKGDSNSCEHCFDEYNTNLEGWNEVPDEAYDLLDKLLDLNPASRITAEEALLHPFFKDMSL
T1 sequence (Q9UBU7 whole entry partner): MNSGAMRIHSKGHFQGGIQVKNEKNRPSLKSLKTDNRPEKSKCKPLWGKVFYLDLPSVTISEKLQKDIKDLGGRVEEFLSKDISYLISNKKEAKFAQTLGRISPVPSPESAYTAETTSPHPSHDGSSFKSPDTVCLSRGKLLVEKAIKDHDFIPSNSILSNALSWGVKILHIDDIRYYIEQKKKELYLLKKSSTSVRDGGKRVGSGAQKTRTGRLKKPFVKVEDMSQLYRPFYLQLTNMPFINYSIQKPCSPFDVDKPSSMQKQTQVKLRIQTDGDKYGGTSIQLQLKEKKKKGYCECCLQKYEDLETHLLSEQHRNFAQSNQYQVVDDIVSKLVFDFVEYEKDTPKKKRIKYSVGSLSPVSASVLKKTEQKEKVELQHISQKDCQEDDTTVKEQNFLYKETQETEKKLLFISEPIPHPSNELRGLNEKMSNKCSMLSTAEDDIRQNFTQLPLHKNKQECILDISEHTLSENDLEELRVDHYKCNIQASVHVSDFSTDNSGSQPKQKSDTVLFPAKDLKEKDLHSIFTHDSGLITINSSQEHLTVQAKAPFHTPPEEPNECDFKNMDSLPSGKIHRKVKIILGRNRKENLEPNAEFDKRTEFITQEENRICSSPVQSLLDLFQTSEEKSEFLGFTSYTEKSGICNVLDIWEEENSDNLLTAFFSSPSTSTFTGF
The test compound was dissolved in and diluted with dimethylsulfoxide (DMSO) to achieve 100-fold higher concentration which was specified by the sponsor. Then the solution was further 25-fold diluted with assay buffer to make the final test compound solution. Reference compounds for assay control were prepared similarly. 2. Kinase Cdc7/ASK: Full-length human Cdc7 [1-574(end) amino acids of accession number NP_003494.1] was co-expressed as N-terminal GST-fusion protein (92 kDa) with Dbf4(ASK) [1-674(end) amino acids of accession number NP_006707.1] using baculovirus expression system. GST-Cdc7 was purified by using glutathione sepharose chromatography. 3. Assay Reagents and Procedures Off-Chip Mobility Shift Assay (MSA) • 1) The […] were prepared with assay buffer (20 mM HEPES, 0.01% Triton X-100, 1 mM DTT, pH 7.5) and mixed and incubated in a well of polypropylene 384 well microplate for 5 hours at room temperature. • 2) […] of Termination Buffer (QuickScout Screening Assist MSA; Carna Biosciences) was added to the well. • 3) The reaction mixture was applied to LabChip system (Perkin Elmer), and the product and substrate peptide peaks were separated and quantitated. • 4) The kinase reaction was evaluated by the product ratio calculated from peak heights of product (P) and substrate (S) peptides (P/(P+S)). 4. Reaction Conditions
5. Data Analysis The readout value of reaction control (complete reaction mixture) was set as a 0% inhibition, and the readout value of background (Enzyme(−)) was set as a 100% inhibition, then the percent inhibition of each test solution was calculated. IC50 value was calculated from concentration vs. % Inhibition curves by fitting to a four parameter logistic curve. Results
In the case of `C[C@@H]1CNCCN1c1nc(-c2cn[nH]c2C(F)(F)F)[nH]c(=O)c1Cl` [Compound 44, 5-chloro-4-[(2R)-2-methylpiperazin-1-yl]-2-[5-(trifluoromethyl)-1H-pyrazol-4-yl]-1H-pyrimidin-6-one], the IC50 is 6.17 nM.

On to `C[C@@H]1CNCCN1c1nc(-c2cn[nH]c2Cl)[nH]c(=O)c1Cl` [Compound 43, 5-chloro-2-(5-chloro-1H-pyrazol-4-yl)-4-[(2R)-2-methylpiperazin-1-yl]-1H-pyrimidin-6-one], for which the IC50 is 3.89 nM.

Consider `C[C@@H]1COCCN1c1nc(-c2cn[nH]c2C(F)(F)F)[nH]c(=O)c1Cl` [Compound 41, 5-chloro-4-[(3R)-3-methylmorpholin-4-yl]-2-[5-(trifluoromethyl)-1H-pyrazol-4-yl]-1H-pyrimidin-6-one], for which the IC50 was 3.98 nM.

A further assay has as its target T1, Cdc7/ASK. Briefly: Cdc7 biochemical assay Method 1: 384 well ELISA, MCM2 whole protein substrate, Phospho MCM2 (S53) antibody. On the set-up: purchased. Particulars: ATP 2 μM, 90 minutes, read-out: Biochemical method 1 (pIC50) (converted). The method, boiled down:
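Commercial Cdc7/ASK phosphorylates plate-bound MCM2 with 2 μM ATP in Tris pH 8.5/MgCl2/DTT, 4% DMSO, 90 min at room temperature. Phospho-MCM2 (S53) detected by antibody ELISA with AP/PNPP absorbance. Inhibition normalised to DMSO and no-enzyme controls; IC50 from curve fit.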
Turning to `Cc1ncsc1-c1nc(N2CCN[C@@H](C(F)(F)F)C2)c(Cl)c(=O)[nH]1` [Compound 28, 5-chloro-2-(4-methylthiazol-5-yl)-4-[(3R)-3-(trifluoromethyl)piperazin-1-yl]-1H-pyrimidin-6-one], the IC50 is 2.09 nM.

For the compound `Cc1ncsc1-c1nc(C2CCOCC2)c(Cl)c(=O)[nH]1` [Compound 6, 5-chloro-2-(4-methylthiazol-5-yl)-4-tetrahydropyran-4-yl-1H-pyrimidin-6-one], the IC50 is 3.8 nM.

Take `O=c1[nH]c(-c2cn[nH]c2C(F)(F)F)nc(C2CCOCC2)c1Cl` [Compound 17, 5-chloro-4-tetrahydropyran-4-yl-2-[5-(trifluoromethyl)-1H-pyrazol-4-yl]-1H-pyrimidin-6-one]: the IC50 was 1.2 nM.

For the compound `O=c1[nH]c(-c2scnc2C(F)(F)F)nc(C2CCOCC2)c1Cl` [Compound 14, 5-chloro-4-tetrahydropyran-4-yl-2-[4-(trifluoromethyl)thiazol-5-yl]-1H-pyrimidin-6-one], the IC50 was 1.82 nM.

With `O=c1[nH]c(-c2scnc2Cl)nc(C2CCOCC2)c1Cl` [Compound 4, 5-chloro-2-(4-chlorothiazol-5-yl)-4-tetrahydropyran-4-yl-1H-pyrimidin-6-one], the IC50 was 1.62 nM.
